Source: patent publication US20040220148A1, “5-Membered ring heterocycles as inhibitors of leucocyte adhesion and as VLA-4 antagonists” (Aventis Pharma Deutschland GmbH, priority 1996, published 2004)

The molecules below were run against T1, VLA-4 integrins on human U937 cells (interaction between VCAM-1 and VLA-4) (Homo sapiens, UniProt P05556+P13612) (assay: U937/VCAM-1 cell adhesion test (adhesion of U937 cells to hVCAM-1(1-3)-IgG)). Settings: concentration leading to 50% inhibition of adhesion.
T1 construct: the VLA-4 integrins, are offered in their natural form as surface molecules on human U937 cells; host or cells: U937 cells (VLA-4, endogenous); the partner hVCAM-1(1-3)-IgG came from the supernatant of transfected COS cells (ATCC CRL1651)
Type: cell-based
From the text: As a test method for the activity of the compounds of the formula I on the interaction between VCAM-1 and VLA-4, an assay which is specific for this interaction is used. The cellular binding components, i.e. the VLA-4 integrins, are offered in their natural form as surface molecules on human U937 cells (ATCC CRL 1593) which belong to the group of leucocytes. As specific binding components, recombinant soluble fusion proteins prepared by genetic engineering and consisting of the extracytoplasmic domains of human VCAM-1 and the constant region of a human immunoglobulin of the subclass IgG1 are used.
Assay for the Measurement of the Adhesion of U937 Cells (ATCC CRL 1593) to hVCAM-1 (1-3)-IgG
1. Preparation of Human VCAM-1(1-3)-IgG and Human CD4-IgG
A genetic construct for the expression of the extracellular domains of human VCAM-1 was employed, associated with the genetic sequence of the heavy chain of human immunoglobulin IgG1 (hinge, CH2 and CH3 regions), from Dr. Brian Seed, Massachusetts General Hospital, Boston, USA. The soluble fusion protein hVCAM-1(1-3)-IgG contained the three amino-terminal extracellular immunoglobulin-like domains of human VCAM-1 (Damle and Aruffo, Proc. Natl. Acad. Sci. USA 1991, 88, 6403). CD4-IgG (Zettlmeissl et al, DNA and Cell Biology 1990, 9, 347) served as a fusion protein for negative controls. The recombinant proteins were expressed as soluble proteins after DEAE/dextran-mediated DNA-transfection in COS cells (ATCC CRL1651) according to standard procedures (Ausubel et al., Current protocols in molecular biology, John Wiley & Sons, Inc., 1994).
2. Assay for Measurement of the Adhesion of U937 Cells to hVCAM-1(1-3)-IgG
2.1 96-well microtiter test plates (Nunc Maxisorb) were incubated at room temperature for 1 hour with 100 μl/well of a goat-anti-human IgG antibody solution (10 μg/ml in 50 mM tris, pH 9.5). After removing the antibody solution, washing was carried out once with PBS.
2.2 150 μl/well of a blocking buffer (1% BSA in PBS) were incubated on the plates at room temperature for 0.5 hours. After removing the blocking buffer, washing was carried out once with PBS.
2.3 100 μl per well of a cell culture supernatant of transfected COS cells were incubated on the plates at room temperature for 1.5 hours. The COS cells were transfected with a plasmid which codes for the three N-terminal immunoglobulin-like domains of VCAM-1, coupled to the Fc part of human IgG1 (hVCAM-1(1-3)-IgG). The content of hVCAM-1 (1-3)-IgG was about […]. After removing the culture supernatant, washing was carried out once with PBS.
2.4 The plates were incubated at room temperature for 20 minutes with […] of Fc receptor blocking buffer (1 mg/ml of γ-globulin, 100 mM NaCl, 100 μM MgCl2, 100 μM MnCl2, 100 μM CaCl2, 1 mg/ml BSA in 50 mM HEPES, pH 7.5). After removing the Fc receptor blocking buffer, washing was carried out once with PBS.
2.5 20 μl of binding buffer (100 mM NaCl, 100 μM MgCl2, 100 μM MgCl2, 100 μM CaCl2, 1 mg/ml BSA in 50 mM HEPES, pH 7.5), were initially introduced, the substances to be tested were added in 10 μl of binding buffer and the mixture was incubated for 20 minutes. As controls, antibodies against VCAM-1 (BBT, No. BBA6) and against VLA-4
(Immunotech, No. 0764) were used.
2.6 U937 cells were incubated in Fc receptor blocking buffer for 20 minutes and then pipetted in at a concentration of 1×10^6/ml and in an amount of 100 μl per well ([…]).
2.7 The plates were slowly immersed at an angle of 45° in stop buffer (100 mM NaCl, 100 μM MgCl2, 100 μM MnCl2, 100 μM CaCl2 in 25 mM Tris, pH 7.5) and shaken off. The process was repeated.
2.8 50 μl/well of a dye solution (16.7 μg/ml of Hoechst dye 33258, 4% formaldehyde, 0.5% Triton X-100 in PBS) were then incubated on the plates for 15 minutes.
2.9 The plates were shaken off and slowly immersed at an angle of 45° in stop buffer (100 mM NaCl, 100 μM MgCl2, 100 μM MnCl2, 100 μM CaCl2 in 25 mM Tris, pH 7.5). The process was repeated. […]

T1 sequence (P13612 34-1032): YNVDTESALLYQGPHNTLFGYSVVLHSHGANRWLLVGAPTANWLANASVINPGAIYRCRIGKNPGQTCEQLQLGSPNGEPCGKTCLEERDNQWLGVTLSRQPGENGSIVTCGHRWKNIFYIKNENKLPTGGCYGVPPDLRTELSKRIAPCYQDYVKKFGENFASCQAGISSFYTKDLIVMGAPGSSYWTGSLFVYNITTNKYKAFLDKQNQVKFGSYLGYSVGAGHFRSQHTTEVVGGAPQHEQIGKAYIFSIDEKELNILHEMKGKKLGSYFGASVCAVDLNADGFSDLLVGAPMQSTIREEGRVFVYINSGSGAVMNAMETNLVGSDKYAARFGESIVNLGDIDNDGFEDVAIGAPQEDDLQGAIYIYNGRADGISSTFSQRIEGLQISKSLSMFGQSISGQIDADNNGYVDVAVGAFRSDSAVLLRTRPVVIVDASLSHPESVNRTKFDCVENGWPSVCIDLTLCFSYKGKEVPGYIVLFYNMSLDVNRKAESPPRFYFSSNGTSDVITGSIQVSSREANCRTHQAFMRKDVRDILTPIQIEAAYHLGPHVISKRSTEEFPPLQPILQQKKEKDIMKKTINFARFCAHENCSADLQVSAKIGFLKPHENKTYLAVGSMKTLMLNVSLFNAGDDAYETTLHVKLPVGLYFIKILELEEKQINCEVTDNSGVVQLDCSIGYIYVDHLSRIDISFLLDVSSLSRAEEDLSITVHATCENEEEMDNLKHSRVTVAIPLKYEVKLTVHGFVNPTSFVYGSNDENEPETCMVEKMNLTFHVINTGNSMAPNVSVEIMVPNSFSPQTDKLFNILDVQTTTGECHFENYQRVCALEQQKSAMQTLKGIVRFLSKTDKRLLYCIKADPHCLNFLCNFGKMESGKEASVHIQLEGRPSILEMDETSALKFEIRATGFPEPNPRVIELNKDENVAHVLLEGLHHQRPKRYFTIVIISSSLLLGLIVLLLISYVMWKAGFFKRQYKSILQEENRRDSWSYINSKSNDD
T1 sequence (P05556 21-798): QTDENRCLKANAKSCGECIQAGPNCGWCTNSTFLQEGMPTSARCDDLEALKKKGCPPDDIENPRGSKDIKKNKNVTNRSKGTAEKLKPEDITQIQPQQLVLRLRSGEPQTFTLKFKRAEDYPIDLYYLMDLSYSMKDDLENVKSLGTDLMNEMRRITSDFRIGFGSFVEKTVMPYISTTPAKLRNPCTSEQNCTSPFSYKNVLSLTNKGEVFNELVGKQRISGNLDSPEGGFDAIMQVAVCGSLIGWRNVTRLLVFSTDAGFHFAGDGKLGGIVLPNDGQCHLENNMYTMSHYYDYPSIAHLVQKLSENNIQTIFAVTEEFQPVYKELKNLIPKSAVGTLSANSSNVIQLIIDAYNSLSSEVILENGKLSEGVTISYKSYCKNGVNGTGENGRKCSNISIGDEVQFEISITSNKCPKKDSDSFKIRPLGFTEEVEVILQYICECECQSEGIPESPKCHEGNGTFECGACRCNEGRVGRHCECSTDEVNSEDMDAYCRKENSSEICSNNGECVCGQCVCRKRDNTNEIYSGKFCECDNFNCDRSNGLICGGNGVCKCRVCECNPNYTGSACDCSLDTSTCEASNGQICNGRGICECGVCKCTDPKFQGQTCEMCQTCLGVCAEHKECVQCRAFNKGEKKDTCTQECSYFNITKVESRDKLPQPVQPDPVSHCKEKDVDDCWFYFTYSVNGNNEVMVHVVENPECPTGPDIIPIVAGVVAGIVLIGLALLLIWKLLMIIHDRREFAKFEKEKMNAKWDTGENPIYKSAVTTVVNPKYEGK

Molecule | IC50 [µM]
CC1(Cc2ccc(NC(=N)N)cc2)C(=O)N(CC(=O)N[C@@H](CC(=O)O)C(=O)N[C@H](C(=O)O)c2ccccc2)C(=O)N1Cc1ccccc1 (stereo partly drawn) [Example 73, ((R,S)-4-(4-Guanidinobenzyl)-3-benzyl-4-methyl-2,5-dioxoimidazolidin-1-yl)acetyl-L-aspartyl-L-phenylglycine] | 125
((S)-4-(3-Guanidinopropyl)-3-benzyl-2,5-dioxoimidazolidin-1-yl)acetyl-D-glutamyl-L-phenylglycine-L-tyrosine hydrochloride [Example 40] | 27
((S)-4-(3-Guarndinopropyl)-3-benzyl-2,5-dioxoimidazolidin-1-yl)acetyl-D-aspartyl-L-phenylglycine-L-tyrosine hydrochloride [Example 39] | 8
